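Five compound concentrations were applied to cells in 96-well plates for 48 hours; endpoints were derived by simple linear interpolation of the resulting dose-response curve. At the GI50, growth is halved.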 Active and inactive are the calls of the source. No stated cut-off is given here; in the data, active = GI50 up to about 1.1 µM and inactive = higher.
How the values were obtained:
Assay in all cases: growth of human tumour cells (NCI), 48 h
[1] = tested on: SF-295
[2] = tested on: ACHN
[3] = tested on: MOLT-4
[4] = tested on: KM12
[5] = tested on: M14
[6] = tested on: CAKI-1
[7] = tested on: A498
[8] = tested on: HOP-92
[9] = tested on: SNB-19
[10] = tested on: OVCAR-4
[11] = tested on: A549
[12] = tested on: HOP-62
[13] = tested on: EKVX
[14] = tested on: HL-60
[15] = tested on: OVCAR-5
[16] = tested on: M19-MEL
[17] = tested on: K562
[18] = tested on: MCF7
[19] = tested on: MDA-N
[20] = tested on: Hs-578T

Compound: Cc1ccccc1NC(=O)c1ccc([N+](=O)[O-])cc1
- GI50 [1]: > 100 µM (inactive)
- GI50 [2]: > 100 µM (inactive)
- GI50 [3]: > 100 µM (inactive)
- GI50 [4]: 67.5 µM (inactive)
- GI50 [5]: > 100 µM (inactive)
- GI50 [6]: > 100 µM (inactive)
- GI50 [7]: > 100 µM (inactive)
- GI50 [8]: > 100 µM (inactive)
- GI50 [9]: > 100 µM (inactive)
- GI50 [10]: > 100 µM (inactive)
- GI50 [11]: > 100 µM (inactive)
- GI50 [12]: > 100 µM (inactive)
- GI50 [13]: > 100 µM (inactive)
- GI50 [14]: 46.8 µM (inactive)
- GI50 [15]: > 100 µM (inactive)
- GI50 [16]: > 100 µM (inactive)
- GI50 [17]: 93.5 µM (inactive)

Compound: COC1CC(C)C(OC)c2cc(O)cc(c2O)NC(=O)/C(C)=C/C=C\C(C)C(OC(N)=O)/C(C)=C\C(C)C1OC (stereo not given)
- GI50 [1]: 1.24 µM (inactive)
- GI50 [2]: 4.98 µM (inactive)
- GI50 [3]: 0.083 µM (active)
- GI50 [4]: 0.255 µM (active)
- GI50 [18]: 0.125 µM (active)
- GI50 [5]: 1.02 µM (active)
- GI50 [7]: 3.49 µM (inactive)
- GI50 [8]: 0.347 µM (active)
- GI50 [9]: 3.78 µM (inactive)
- GI50 [10]: 3.2 µM (inactive)
- GI50 [11]: 2.51 µM (inactive)
- GI50 [12]: 0.579 µM (active)
- GI50 [13]: 10.5 µM (inactive)
- GI50 [19]: 0.144 µM (active)
- GI50 [15]: 1.47 µM (inactive)
- GI50 [16]: 0.437 µM (active)

Compound: Cc1cc(N(CCC#N)CCC#N)ccc1/C=C(\NC(=O)/C=C/c1ccccc1)C(=O)NN
- GI50 [1]: 40 µM (inactive)
- GI50 [20]: 31.3 µM (inactive)
- GI50 [2]: > 80.9 µM (inactive)
- GI50 [3]: > 100 µM (inactive)
- GI50 [4]: > 100 µM (inactive)
- GI50 [18]: 95.1 µM (inactive)
- GI50 [5]: > 100 µM (inactive)
- GI50 [6]: > 100 µM (inactive)
- GI50 [7]: > 100 µM (inactive)
- GI50 [8]: 20.3 µM (inactive)
- GI50 [9]: > 40.9 µM (inactive)
- GI50 [10]: > 100 µM (inactive)
- GI50 [11]: > 100 µM (inactive)
- GI50 [12]: 37.1 µM (inactive)
- GI50 [13]: > 73.3 µM (inactive)
- GI50 [19]: > 100 µM (inactive)
- GI50 [14]: > 100 µM (inactive)
- GI50 [15]: > 100 µM (inactive)
- GI50 [16]: > 100 µM (inactive)
- GI50 [17]: > 100 µM (inactive)

Compound: N#C/C(=C\c1ccc(O)c(O)c1)C(N)=O
- GI50 [1]: 39.1 µM (inactive)
- GI50 [2]: 41.6 µM (inactive)
- GI50 [3]: 12.5 µM (inactive)
- GI50 [4]: 33.1 µM (inactive)
- GI50 [5]: 55.6 µM (inactive)
- GI50 [6]: 95.9 µM (inactive)
- GI50 [7]: > 100 µM (inactive)
- GI50 [8]: 49.9 µM (inactive)
- GI50 [9]: 38.5 µM (inactive)
- GI50 [10]: 67.1 µM (inactive)
- GI50 [11]: 46.2 µM (inactive)
- GI50 [12]: 51.2 µM (inactive)
- GI50 [13]: 53 µM (inactive)
- GI50 [14]: 10.1 µM (inactive)
- GI50 [15]: > 100 µM (inactive)
- GI50 [16]: 78.7 µM (inactive)
- GI50 [17]: 34.6 µM (inactive)

Reference: ChEMBL document CHEMBL1201862, “PubChem BioAssay data set” (2004)
